Laboratory results published in US20060069132A1, “Azolecarboxamide herbicides” (priority 2004, published 2006).

Legend:
ducksalad [1] = experiment: Test C flooded paddy test; format: in vivo, Heteranthera limosa
large crabgrass = experiment: Test B pre-/postemergence herbicide test; format: in vivo, Digitaria sanguinalis; settings: for Crabgrass, Large plant response rating: scale 0 (no effect) to 100 (complete control)
Method in brief: (§1)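 Seeds were planted and treated preemergence with compounds formulated in a non-phytotoxic solvent mixture containing surfactant, while plants at the 1- to 4-leaf stage (2 to 18 cm) received postemergence sprays. Flooded paddy plants were grown to the 2-leaf stage. After 13 to 15 days in a greenhouse, injury was visually rated 0–100 against untreated controls.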

barnyardgrass [2] = experiment: Test C flooded paddy test; format: in vivo, Echinochloa crus-galli
Method in brief: (§2)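 Plants were grown to the 1- to 4-leaf stage (2–18 cm) and then treated postemergence, or grown to the 2-leaf stage for the flooded paddy test. They were held in a greenhouse for 12 to 14 days and then scored by eye against controls, where 0 is no effect and 100 is complete control.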

giant foxtail = experiment: Test B pre-/postemergence herbicide test; format: in vivo, Setaria faberi; settings: for Foxtail, Giant plant response rating: scale 0 (no effect) to 100 (complete control)
Method in brief: as §1

lambsquarters = experiment: Test B pre-/postemergence herbicide test; format: in vivo, Chenopodium album; settings: for Lambsquarters plant response rating: scale 0 (no effect) to 100 (complete control)
Method in brief: as §1

wheat = experiment: Test B postemergence herbicide test; format: in vivo, Triticum aestivum; set-up: key to Wheat plant response rating: 0 = no effect, 100 = complete control
Method in brief: (§3)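 Greenhouse test; postemergence application to plants at 1–4 leaves (2–18 cm); paddy species at 2 leaves; evaluated visually vs controls at 13–15 days; scale 0–100 (100 = complete control).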

rice [3] = experiment: Test C flooded paddy test; format: in vivo, Oryza sativa
Method in brief: as §2

barnyardgrass [4] = experiment: Test B flooded paddy test; format: in vivo, Echinochloa crus-galli; settings: 1000 g ai/ha, scale 0 to 100 (0 no effect, 100 complete control)
Method in brief: (§4)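 Postemergence plants were sprayed with formulated test chemicals at 2 to 18 cm height (1- to 4-leaf stage); paddy species were grown to the 2-leaf stage. After 13 to 15 days in a greenhouse, injury was rated visually against untreated controls on a 0–100 scale (0 = no effect, 100 = complete control).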

Surinam grass = experiment: Test B pre-/postemergence herbicide test; format: in vivo, Urochloa decumbens; settings: for Surinam Grass plant response rating: scale 0 (no effect) to 100 (complete control)
Method in brief: as §1

wild oat = experiment: Test B postemergence herbicide test; format: in vivo, Avena fatua; settings: scale 0 (no effect) to 100 (complete control)
Method in brief: as §3

morningglory = experiment: Test B pre-/postemergence herbicide test; format: in vivo, Ipomoea coccinea; settings: for Morningglory plant response rating: scale 0 (no effect) to 100 (complete control)
Method in brief: as §1

blackgrass = experiment: Test B postemergence herbicide test; format: in vivo, Alopecurus myosuroides; settings: scale 0 (no effect) to 100 (complete control)
Method in brief: as §4

cocklebur = experiment: Test B pre-/postemergence herbicide test; format: in vivo, Xanthium strumarium; settings: for Cocklebur plant response rating: scale 0 (no effect) to 100 (complete control)
Method in brief: as §1

velvetleaf = experiment: Test B pre-/postemergence herbicide test; format: in vivo, Abutilon theophrasti; settings: for Velvetleaf plant response rating: scale 0 (no effect) to 100 (complete control)
Method in brief: as §1

pigweed = experiment: Test B pre-/postemergence herbicide test; format: in vivo, Amaranthus retroflexus; settings: for Pigweed plant response rating: scale 0 (no effect) to 100 (complete control)
Method in brief: as §1

ducksalad [5] = experiment: Test B flooded paddy test; format: in vivo, Heteranthera limosa; settings: 1000 g ai/ha, scale 0 to 100 (0 no effect, 100 complete control)
Method in brief: as §4

[6] = system: small flower umbrella sedge; experiment: Test B flooded paddy test; format: in vivo, Cyperus difformis; settings: 1000 g ai/ha, scale 0 to 100 (0 no effect, 100 complete control)
Method in brief: as §4

[7] = system: smallflower umbrella sedge; experiment: Test C flooded paddy test; format: in vivo, Cyperus difformis
barnyardgrass [8] = experiment: Test B pre-/postemergence herbicide test; format: in vivo, Echinochloa crus-galli; settings: for Barnyardgrass plant response rating: scale 0 (no effect) to 100 (complete control)
Method in brief: as §1

rice [9] = experiment: Test B flooded paddy test; format: in vivo, Oryza sativa; settings: 1000 g ai/ha, scale 0 to 100 (0 no effect, 100 complete control)
Method in brief: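 Visual ratings, 0 (no effect) to 100 (complete control), made versus controls after 13–15 d greenhouse. Paddy plants treated at 2-leaf stage; postemergence plants at 1- to 4-leaf stage, 2–18 cm tall.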

corn = experiment: Test B pre-/postemergence herbicide test; format: in vivo, Zea mays; settings: for Corn plant response rating: scale 0 (no effect) to 100 (complete control)
Method in brief: as §1

[10] = 125 g ai/ha, scale 0 to 100 (0 no effect, 100 complete control)
[11] = 250 g ai/ha, scale of 0 to 100, 0 is no effect, 100 is complete control
[12] = 500 g ai/ha, visual rating after 12 to 14 days, scale 0 to 100 (0 no effect, 100 complete control)
[13] = 125 g ai/ha, 0 is no effect, 100 is complete control, preemergence
[14] = 125 g ai/ha, visual rating, postemergence

## Cc1nn(C(C)C)nc1C(=O)Nc1cccc(C(=O)N(C)C)c1 [Compound 404]
Ducksalad [1]; 62 g ai/ha, scale 0 to 100
  Ducksalad plant response rating: 10
Ducksalad [1]; [10]
  Ducksalad plant response rating: 10
Ducksalad [1]; [11]
  Ducksalad plant response rating: 20
Ducksalad [1]; [12]
  Plant response rating, Ducksalad: 30
Large crabgrass; [13]
  Plant response rating (0 to 100 scale), Crabgrass, Large: 70
Large crabgrass; [14]
  Crabgrass, Large plant response rating: 0
Large crabgrass; Postemergence, 500 g ai/ha
  Crabgrass, Large plant response rating: 10
Barnyardgrass [2]; 62 g ai/ha, scale 0 to 100 (0 no effect, 100 complete control)
  Barnyardgrass plant response rating: 0
Barnyardgrass [2]; [10]
  Barnyardgrass plant response rating: 0
Barnyardgrass [2]; [11]
  Barnyardgrass plant response rating: 20
Barnyardgrass [2]; [12]
  Plant response rating, Barnyardgrass: 30
Giant foxtail; [13]
  Plant response rating (0 to 100 scale), Foxtail, Giant: 30
Giant foxtail; [14]
  Foxtail, Giant plant response rating: 10
Giant foxtail; Postemergence, 500 g ai/ha
  Foxtail, Giant plant response rating: 40
lambsquarters; [13]
  Plant response rating (0 to 100 scale), Lambsquarters: 90
lambsquarters; [14]
  Lambsquarters plant response rating: 60
lambsquarters; Postemergence, 500 g ai/ha
  Lambsquarters plant response rating: 80
wheat; 125 g ai/ha, visual rating, scale 0 (no effect) to 100 (complete control), postemergence
  Wheat plant response rating: 0
wheat; 500 g ai/ha, scale 0 to 100, 0 no effect, 100 complete control, preemergence
  Wheat plant response rating: 100
wheat; Postemergence, 500 g ai/ha, scale 0 (no effect) to 100 (complete control)
  Wheat plant response rating: 0
Rice [3]; 62 g ai/ha, scale 0 to 100
  Rice plant response rating: 0
Rice [3]; [10]
  Rice plant response rating: 0
Rice [3]; [11]
  Rice plant response rating: 45
Rice [3]; [12]
  Plant response rating, Rice: 50
Barnyardgrass [4]
  Barnyardgrass plant response rating: 90
Surinam grass; [13]
  Plant response rating (0 to 100 scale), Surinam Grass: 40
Surinam grass; [14]
  Surinam Grass plant response rating: 0
Surinam grass; Postemergence, 500 g ai/ha
  Surinam Grass plant response rating: 10
Wild oat; [14]
  Oat, Wild plant response rating: 0
Wild oat; Postemergence, 500 g ai/ha
  Oat, Wild plant response rating: 10
morningglory; [13]
  Plant response rating (0 to 100 scale), Morningglory: 60
morningglory; [14]
  Morningglory plant response rating: 20
morningglory; Postemergence, 500 g ai/ha
  Morningglory plant response rating: 70
blackgrass; [14]
  Blackgrass plant response rating: 10
blackgrass; Postemergence, 500 g ai/ha
  Blackgrass plant response rating: 30
cocklebur; [13]
  Plant response rating (0 to 100 scale), Cocklebur: 40
cocklebur; [14]
  Cocklebur plant response rating: 10
cocklebur; Postemergence, 500 g ai/ha
  Cocklebur plant response rating: 30
velvetleaf; [13]
  Plant response rating (0 to 100 scale), Velvetleaf: 20
velvetleaf; [14]
  Velvetleaf plant response rating: 30
velvetleaf; Postemergence, 500 g ai/ha
  Velvetleaf plant response rating: 30
pigweed; [13]
  Plant response rating (0 to 100 scale), Pigweed: 70
pigweed; [14]
  Pigweed plant response rating: 10
pigweed; Postemergence, 500 g ai/ha
  Pigweed plant response rating: 30
Ducksalad [5]
  Ducksalad plant response rating: 90
[6]
  Sedge, Umbrella plant response rating: 90
[7]; 62 g ai/ha, scale 0 to 100
  Sedge, Umbrella plant response rating: 70
[7]; [10]
  Sedge, Umbrella plant response rating: 75
[7]; [11]
  Sedge, Umbrella plant response rating: 80
[7]; [12]
  Plant response rating, Sedge, Umbrella: 85
Barnyardgrass [8]; [13]
  Plant response rating (0 to 100 scale), Barnyardgrass: 70
Barnyardgrass [8]; [14]
  Barnyardgrass plant response rating: 10
Barnyardgrass [8]; Postemergence, 500 g ai/ha
  Barnyardgrass plant response rating: 10
Rice [9]
  Rice plant response rating: 60
corn; [13]
  Plant response rating (0 to 100 scale), Corn: 0
corn; [14]
  Corn plant response rating: 0
corn; Postemergence, 500 g ai/ha
  Corn plant response rating: 10
